Experimental findings from patent publication US7956083B2, “Compounds” (Glaxo Group Limited, priority 2008, dated 2011) are described below.

For the experiment, the target named is human ER beta (Homo sapiens, UniProt Q92731). The experiment in a line: ER beta FP binding assay (fluorescence polarisation, Fluormone EL Red ligand). To be noted: 6 nM ERbeta protein, 1.5 nM ER FP ligand, 3 hours at room temperature; read-out: pIC50 in the ER beta FP binding assay (converted). As for the experimental part: Assay Buffer (AB) (50 mM MOPES pH 7.5, 50 mM NaF, 2.5 mM CHAPs), in deionized water, 5 mM 1,4 dithiothreitol (DTT) added on day of the experiment. The appropriate amount of AB was placed in a plastic tube, adding solid DTT before the assay was run. AB with DTT was distributed to plastic tubes. We have found use of plastic to be important vs glass. A final concentration of 6 nM ERbeta protein was added to the tube followed by gentle inversion. A final concentration of 1.5 nM ER FP ligand (Fluormone™ EL Red 200 nM in 20 mM Tris, 90% Methanol purchased from Invitrogen catalogue no P3030) was added to the same tube followed by gentle inversion. This was allowed to sit for 5-10 minutes before adding it to the 384 assay plate. Similar protocol was used for ERalpha with a final concentration of 4 nM ERalpha and 1.5 nM ER FP ligand.
Chain of human ER beta (Q92731 with tags, fused parts or gaps): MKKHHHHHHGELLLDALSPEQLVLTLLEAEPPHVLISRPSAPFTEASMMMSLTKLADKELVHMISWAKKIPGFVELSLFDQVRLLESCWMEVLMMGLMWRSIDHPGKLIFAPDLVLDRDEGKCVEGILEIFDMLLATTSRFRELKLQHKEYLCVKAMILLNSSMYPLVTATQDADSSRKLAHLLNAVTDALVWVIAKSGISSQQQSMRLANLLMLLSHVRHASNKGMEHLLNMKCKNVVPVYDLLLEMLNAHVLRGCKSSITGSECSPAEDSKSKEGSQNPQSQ
384 plates containing test compounds dissolved in 100% DMSO at 1 mM were serially diluted (1:3) by a Beckman FX. Serial diluted test compounds were added, 0.1 μL, to the assay plates with a maximum final concentration of 10 uM. Once the assay plates were ready, 10 μL of the above reagents were added to the appropriate set of plates with the Thermo combi. These plates were then sealed and place at room temperature for 3 hours.
The plates were then placed on the Molecular Devices Analyst and counted (excitation 535 nm, emission 590 nm with a 561 Dichroic mirror). Data was normalized to control then fitted to a non-linear least squares algorithm (see below).
pIC50 Calculation y=a+((b−a)/(1+(10^x/10^c){circumflex over (0)}d)
The amino acid sequence of human ER beta used in this assay is […]
(In general: Polarisation of emitted light reports the rotation of a fluorescent probe.)

As for `Oc1ccc(-n2ccc3c(O)c(F)cc(Br)c32)cc1F` [Example 4, 7-bromo-5-fluoro-1-(3-fluoro-4-hydroxyphenyl)-1H-indol-4-ol], the IC50 is below 10 nM.

Consider `Oc1ccc(-n2ccc3c(O)c(F)ccc32)cc1F` [Example 5, 5-fluoro-1-(3-fluoro-4-hydroxyphenyl)-1H-indol-4-ol], for which the IC50 was below 10 nM.

Regarding `Oc1ccc(-n2ccc3c(O)ccc(Cl)c32)cc1F` [Example 7, 7-Chloro-1-(3-fluoro-4-hydroxyphenyl)-1H-indol-4-ol], the IC50 was below 10 nM.

Consider `N#Cc1cc(O)c2ccn(-c3ccc(O)c(F)c3)c2c1` [Example 8, 1-(3-Fluoro-4-hydroxyphenyl)-4-hydroxy-1H-indole-6-carbonitrile], for which the IC50 is below 10 nM.

Regarding `Oc1ccc(-n2ccc3c(O)cc(F)cc32)cc1F` [Example 9, 6-Fluoro-1-(3-fluoro-4-hydroxyphenyl)-1H-indol-4-ol], the IC50 is below 10 nM.

For the molecule `Oc1ccc(-n2ccc3c(O)cc(F)cc32)cc1` [Example 10, 6-fluoro-1-(4-hydroxyphenyl)-1H-indol-4-ol], the IC50 was below 10 nM.
